Some test systems named below: SR leukemia; HS 578T breast; OVCAR-4 ovarian; PC-3 prostate; HOP-92 NSCLC; HOP-62 NSCLC; HCT-15 colon; NCI-H226 lung; HCC-2998 colon; COLO 205 colon; SF-268 CNS; LOX IMVI melanoma; SF-295 CNS; A498 renal; OVCAR-3 ovarian; SK-OV-3 ovarian; KM12 colon; SK-MEL-5 melanoma; MCF7 breast; BT-549 breast.
What all share (test): NCI anticancer screen, dose series, 48 h

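1) Cells in 96-well plates. 2) Compound, 48 h, 5 concentrations. 3) Linear interpolation between surrounding doses. 4) Unreached endpoint = highest concentration. The concentration for full growth arrest is given as TGI.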

In the case of `ClCCN1CCOC1=Nc1ccc2c(c1)CCCC2`, the TGI came to 61.1 µM in the experiment on SR leukemia; 72 µM with HS 578T breast; 41.4 µM in the experiment with OVCAR-4 ovarian; 23 µM in the experiment on PC-3 prostate; 30.7 µM in the experiment on HOP-92 NSCLC; 22 µM in the experiment on HOP-62 NSCLC. The TGI stood at 48.6 µM in the experiment on HCT-15 colon; 30.9 µM in the experiment with NCI-H226 lung; 30.1 µM with HCC-2998 colon; 25 µM with COLO 205 colon; 47.7 µM in the experiment with SF-268 CNS; 32.3 µM in the experiment on LOX IMVI melanoma. Besides, the TGI in the experiment with SF-295 CNS stood at 31.9 µM; with A498 renal, 23 µM; in the experiment on OVCAR-3 ovarian it was 29.3 µM; with SK-OV-3 ovarian, 74.9 µM; in the experiment on KM12 colon, 32 µM; in the experiment with SK-MEL-5 melanoma, 7.38 µM.

On to `CCCCOC(=O)NC(Nc1ccc(S(=O)(=O)Nc2ccc(OC)nn2)cc1)(C(F)(F)F)C(F)(F)F`, for which the TGI in the experiment with SR leukemia, with OVCAR-4 ovarian, in the experiment with PC-3 prostate, in the experiment on HOP-92 NSCLC, in the experiment on HOP-62 NSCLC and in the experiment on HCT-15 colon was above 100 µM in each case. Besides, the TGI with NCI-H226 lung, with HCC-2998 colon, with MCF7 breast, with COLO 205 colon, with SF-268 CNS and in the experiment with LOX IMVI melanoma was above 100 µM in each case. For the same compound, the TGI in the experiment with SF-295 CNS, with A498 renal, with OVCAR-3 ovarian, in the experiment with SK-OV-3 ovarian, in the experiment with KM12 colon and in the experiment with SK-MEL-5 melanoma was above 100 µM throughout.

Regarding `CC1(C)OC(C[C@]2(C#N)C[C@H](CCl)OC(C)(C)O2)C[C@@H](C[C@]2(C#N)C[C@H](CCl)OC(C)(C)O2)O1` (stereo partly specified), the TGI in the experiment with SR leukemia, with OVCAR-4 ovarian, with HOP-92 NSCLC, in the experiment with HOP-62 NSCLC, in the experiment on HCT-15 colon and in the experiment with NCI-H226 lung was above 100 µM in each case. For the same compound, the TGI in the experiment with HCC-2998 colon, in the experiment with COLO 205 colon, in the experiment on SF-268 CNS, with LOX IMVI melanoma, with SF-295 CNS and in the experiment on A498 renal was above 100 µM in each case. For the same compound, the TGI with OVCAR-3 ovarian, in the experiment on SK-OV-3 ovarian, with KM12 colon and in the experiment with SK-MEL-5 melanoma was above 100 µM throughout.

With `CCSC1(SCC)CC(Cc2ccc(OC)cc2)N(C=NC(C)(C)C)C1` (stereo unspecified), the TGI was 34.2 µM in the experiment with SR leukemia; above 100 µM in the experiment on OVCAR-4 ovarian; 25 µM in the experiment on HOP-92 NSCLC; above 100 µM with HOP-62 NSCLC; above 100 µM in the experiment on HCT-15 colon; above 100 µM in the experiment on NCI-H226 lung. Moreover, the TGI was 40.2 µM with HCC-2998 colon; 74.6 µM in the experiment on COLO 205 colon; above 100 µM in the experiment on SF-268 CNS; 32.4 µM in the experiment with LOX IMVI melanoma; 45.5 µM in the experiment with SF-295 CNS; above 100 µM with A498 renal. Moreover, the TGI in the experiment with OVCAR-3 ovarian is above 100 µM; in the experiment with SK-OV-3 ovarian it was 83.6 µM; in the experiment with KM12 colon, 64.8 µM; in the experiment on SK-MEL-5 melanoma it was 31.3 µM.

Turning to `CC(=O)OC(C)c1cc2c(s1)C(=O)c1scc(C(C)OC(C)=O)c1C2=O` (stereo unspecified), the TGI in the experiment on HS 578T breast stood at 1.41 µM; with OVCAR-4 ovarian, 0.583 µM; in the experiment on HOP-92 NSCLC it was 4.58 µM; in the experiment on HOP-62 NSCLC it was 0.44 µM; in the experiment on HCT-15 colon, 0.381 µM; in the experiment with NCI-H226 lung, 4.04 µM. Also, the TGI in the experiment on HCC-2998 colon was 1.23 µM; in the experiment with MCF7 breast it was 0.605 µM; with COLO 205 colon, 1 µM; with SF-268 CNS it was 0.504 µM; with LOX IMVI melanoma, above 100 µM; in the experiment on SF-295 CNS, 0.323 µM. Moreover, the TGI in the experiment on A498 renal worked out at 1.26 µM; in the experiment on BT-549 breast, 0.426 µM; in the experiment on SK-OV-3 ovarian it was 4.33 µM; with KM12 colon it was 0.359 µM; in the experiment with SK-MEL-5 melanoma, 0.208 µM.

For `COc1ccc2c3c(n(Cc4ccccc4)c(=O)c2c1)-c1cc(OC)c(OC)cc1C3C` (stereo unspecified), the TGI was above 100 µM with SR leukemia; 47.7 µM in the experiment with OVCAR-4 ovarian; 42.6 µM with HOP-92 NSCLC; above 70 µM in the experiment on HOP-62 NSCLC; above 100 µM in the experiment with HCT-15 colon; above 75.9 µM in the experiment on NCI-H226 lung. The TGI was above 100 µM in the experiment with HCC-2998 colon; above 100 µM in the experiment with COLO 205 colon; above 63.6 µM in the experiment on SF-268 CNS; above 100 µM with LOX IMVI melanoma; 31.4 µM in the experiment on SF-295 CNS; 97.8 µM with A498 renal. The TGI in the experiment with OVCAR-3 ovarian was above 100 µM; in the experiment on SK-OV-3 ovarian it was above 80.4 µM; in the experiment with KM12 colon it was above 100 µM; in the experiment on SK-MEL-5 melanoma it was 51.5 µM.

`CCOC(=O)N(c1ccccc1)c1cc(=O)n2ccccc2n1`: the TGI with SR leukemia, with OVCAR-4 ovarian, with HOP-62 NSCLC, with HCT-15 colon, in the experiment with NCI-H226 lung and with HCC-2998 colon was above 100 µM each time. The TGI with MCF7 breast, with COLO 205 colon, in the experiment on SF-268 CNS, with LOX IMVI melanoma, in the experiment with SF-295 CNS and in the experiment on A498 renal was above 100 µM throughout. Also, the TGI in the experiment on BT-549 breast, in the experiment on OVCAR-3 ovarian, in the experiment with SK-OV-3 ovarian, in the experiment with KM12 colon and in the experiment with SK-MEL-5 melanoma was above 100 µM throughout.

Regarding `C=C1CCCCCCCCCCC12SCCC2CCCCSC` (stereo unspecified), the TGI was 53.4 µM in the experiment with SR leukemia; above 100 µM with HS 578T breast; above 100 µM in the experiment with OVCAR-4 ovarian; 56.1 µM with PC-3 prostate; 62.5 µM in the experiment with HOP-92 NSCLC; 40.9 µM with HOP-62 NSCLC. In addition, the TGI in the experiment with HCT-15 colon was found to be 73.4 µM; in the experiment on NCI-H226 lung, 36.2 µM; in the experiment with HCC-2998 colon it was 39.2 µM; in the experiment on MCF7 breast it was 39.3 µM; in the experiment on COLO 205 colon it was 33.6 µM; in the experiment on SF-268 CNS, 67.4 µM. For the same compound, the TGI in the experiment with LOX IMVI melanoma is 34.2 µM; in the experiment on SF-295 CNS it was 38.3 µM; in the experiment with A498 renal it was 35.8 µM; with OVCAR-3 ovarian it was 34.1 µM; in the experiment with SK-OV-3 ovarian, above 100 µM; in the experiment with SK-MEL-5 melanoma, 33.1 µM.

The record behind these values is PubChem BioAssay (NCI).
